Assay results as given in PubChem BioAssay (NCI).
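GI50 marks 50% less growth. TGI is the concentration that stops growth completely.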

How the values were obtained:
Experiment in all cases: NCI-60 cell line screen, 384-well format
SF-268 CNS = tested on: SF-268 CNS
MOLT-4 leukemia = tested on: MOLT-4 leukemia
EKVX NSCLC = tested on: EKVX NSCLC
DU-145 prostate = tested on: DU-145 prostate
K-562 leukemia = tested on: K-562 leukemia
SF-295 CNS = tested on: SF-295 CNS
PC-3 prostate = tested on: PC-3 prostate
SR leukemia = tested on: SR leukemia
OVCAR-4 ovarian = tested on: OVCAR-4 ovarian
HOP-92 NSCLC = tested on: HOP-92 NSCLC
SNB-75 CNS = tested on: SNB-75 CNS
HCT-15 colon = tested on: HCT-15 colon
UO-31 renal = tested on: UO-31 renal
NCI-H23 lung = tested on: NCI-H23 lung
SK-MEL-2 melanoma = tested on: SK-MEL-2 melanoma
MDA-MB-435 melanoma = tested on: MDA-MB-435 melanoma
M14 melanoma = tested on: M14 melanoma
OVCAR-8 ovarian = tested on: OVCAR-8 ovarian
NCI-H460 NSCLC = tested on: NCI-H460 NSCLC
SF-539 CNS = tested on: SF-539 CNS
OVCAR-3 ovarian = tested on: OVCAR-3 ovarian
MCF7 breast = tested on: MCF7 breast
NCI-H322M lung = tested on: NCI-H322M lung
SK-OV-3 ovarian = tested on: SK-OV-3 ovarian
CAKI-1 renal = tested on: CAKI-1 renal
786-0 renal = tested on: 786-0 renal
HCT-116 colon = tested on: HCT-116 colon
U251 glioblastoma = tested on: U251 glioblastoma
UACC-62 melanoma = tested on: UACC-62 melanoma

Work on `CCN1CCC(Oc2c(C#N)ncc3[nH]c4ncccc4c23)CC1` yielded a GI50 (SF-268 CNS) of 3500 nM, a TGI (SF-268 CNS) of 14800 nM and a GI50 (MOLT-4 leukemia) of 172 nM. For the same compound, the TGI (MOLT-4 leukemia) was 327 nM, the GI50 (EKVX NSCLC) was over 100000 nM and the TGI (EKVX NSCLC) was over 100000 nM. The GI50 (DU-145 prostate) was 5900 nM, the TGI (DU-145 prostate) was over 100000 nM and the GI50 (K-562 leukemia) was 253 nM. For the same compound, the TGI (K-562 leukemia) was 694 nM, the GI50 (SF-295 CNS) was 120 nM and the TGI (SF-295 CNS) was 619 nM. The GI50 (PC-3 prostate) was 4790 nM, the TGI (PC-3 prostate) was over 90200 nM and the GI50 (SR leukemia) was under 39.6 nM. It also gave a TGI (SR leukemia) of 92.8 nM, a GI50 (OVCAR-4 ovarian) of over 100000 nM and a TGI (OVCAR-4 ovarian) of over 100000 nM. It also gave a GI50 (HOP-92 NSCLC) of 183 nM, a GI50 (SNB-75 CNS) of 7160 nM and a TGI (SNB-75 CNS) of over 57800 nM. The GI50 (HCT-15 colon) was 2260 nM, the TGI (HCT-15 colon) was over 88100 nM and the GI50 (UO-31 renal) was 221 nM. The TGI (UO-31 renal) was 1650 nM, the GI50 (NCI-H23 lung) was 423 nM and the TGI (NCI-H23 lung) was 18400 nM. The GI50 (SK-MEL-2 melanoma) was 1170 nM, the TGI (SK-MEL-2 melanoma) was 4470 nM and the GI50 (MDA-MB-435 melanoma) was 520 nM. It also gave a TGI (MDA-MB-435 melanoma) of 1760 nM, a GI50 (M14 melanoma) of 398 nM and a TGI (M14 melanoma) of 1650 nM. For the same compound, the GI50 (OVCAR-8 ovarian) was 1010 nM, the TGI (OVCAR-8 ovarian) was over 100000 nM and the GI50 (NCI-H460 NSCLC) was 997 nM. The TGI (NCI-H460 NSCLC) was 3940 nM, the GI50 (SF-539 CNS) was 85.8 nM and the TGI (SF-539 CNS) was 273 nM. The GI50 (OVCAR-3 ovarian) was 501 nM, the TGI (OVCAR-3 ovarian) was 1180 nM and the GI50 (MCF7 breast) was 317 nM. It also gave a TGI (MCF7 breast) of over 100000 nM, a GI50 (NCI-H322M lung) of 449 nM and a TGI (NCI-H322M lung) of over 100000 nM. For the same compound, the GI50 (SK-OV-3 ovarian) was 578 nM, the TGI (SK-OV-3 ovarian) was over 24000 nM and the GI50 (CAKI-1 renal) was 3400 nM. The TGI (CAKI-1 renal) was over 100000 nM, the GI50 ([…]-0 renal) was 2520 nM and the TGI (786-0 renal) was over 100000 nM. The GI50 (HCT-116 colon) was 1270 nM, the TGI (HCT-116 colon) was 2850 nM and the GI50 (U251 glioblastoma) was 1590 nM. For the same compound, the TGI (U251 glioblastoma) was over 100000 nM, the GI50 (UACC-62 melanoma) was 5290 nM and the TGI (UACC-62 melanoma) was 27500 nM.
